# In ChEMBL document CHEMBL4680194, “Synthesis and biological evaluation of 1,2,4-triazole derivatives as potential neuroprotectant against ischemic brain injury” (Eur J Med Chem, 2020):
# Activity calls are given as the source filed them. The rule behind the calls is not given here.
# Key:
# PC-12 [1] = assay: Cytoprotective activity against SNP-induced cell death in rat PC-12 cells assessed as increase in cell viability at 10 uM incubated for 1 hr followed by SNP stimulation and measured after 24 hrs by MTT assay; type: functional; settings: time 25 hrs
# Rattus norvegicus [2] = assay: Neuroprotective activity in Sprague-Dawley rat model of middle cerebral artery occlusion-induced ischemic injury assessed as infarction volume at 30 mg/kg, ip administered TID and measured after 6 hrs by TTC staining based assay (reference value: 28.67 +/- 2.90 %); type: functional
# [3] = target: T1, Nuclear factor erythroid 2-related factor 2 (Rattus norvegicus) (UniProt O54968); assay: Induction of Nrf2 nuclear translocation in rat PC-12 cells assessed as SNP-induced GSH-px level at 2.5 uM incubated for 1 hr followed by SNP stimulation and measured after 24 hrs (reference value: 37.70 +/- 2.88 mU/mg); type: cell-based; settings: time 25.0 hrs
# T1 sequence (whole entry): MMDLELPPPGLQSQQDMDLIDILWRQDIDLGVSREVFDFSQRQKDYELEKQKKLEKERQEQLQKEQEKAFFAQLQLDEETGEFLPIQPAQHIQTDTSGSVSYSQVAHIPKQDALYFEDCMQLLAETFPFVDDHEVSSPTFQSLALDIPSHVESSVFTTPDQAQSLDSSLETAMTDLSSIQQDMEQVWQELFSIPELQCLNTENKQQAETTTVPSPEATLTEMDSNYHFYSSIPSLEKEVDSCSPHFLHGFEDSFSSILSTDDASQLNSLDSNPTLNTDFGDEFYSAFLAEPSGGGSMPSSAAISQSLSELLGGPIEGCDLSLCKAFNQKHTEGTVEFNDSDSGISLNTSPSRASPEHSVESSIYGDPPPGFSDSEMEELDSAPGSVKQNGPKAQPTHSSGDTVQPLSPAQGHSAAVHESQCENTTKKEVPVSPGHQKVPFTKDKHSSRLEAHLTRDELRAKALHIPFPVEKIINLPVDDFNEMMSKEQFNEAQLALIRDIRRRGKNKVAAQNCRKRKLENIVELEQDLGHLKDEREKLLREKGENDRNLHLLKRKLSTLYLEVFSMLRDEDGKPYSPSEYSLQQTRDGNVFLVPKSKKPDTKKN
# [4] = target: T1, Nuclear factor erythroid 2-related factor 2 (Rattus norvegicus); assay: Induction of Nrf2 nuclear translocation in rat PC-12 cells assessed as H2O2-induced SOD level at 10 uM incubated for 1 hr followed by H2O2 stimulation and measured after 5 hrs (reference value: 29.69 +/- 1.65 U/mg); type: cell-based; settings: time 6.0 hrs
# [5] = target: T1, Nuclear factor erythroid 2-related factor 2 (Rattus norvegicus); assay: Induction of Nrf2 nuclear translocation in rat PC-12 cells assessed as H2O2-induced GSH-px level incubated for 1 hr followed by H2O2 stimulation and measured after 5 hrs; type: cell-based; settings: dose 2.5-10 µM, time 6.0 hrs
# [6] = target: T1, Nuclear factor erythroid 2-related factor 2 (Rattus norvegicus); assay: Induction of Nrf2 nuclear translocation in rat PC-12 cells assessed as H2O2-induced GSH level at 5 uM incubated for 1 hr followed by H2O2 stimulation and measured after 5 hrs (reference value: 65.52 +/- 1.44 nM/mg); type: cell-based; settings: time 6.0 hrs
# Rattus norvegicus [7] = assay: Neuroprotective activity in Sprague-Dawley rat model of middle cerebral artery occlusion-induced ischemic injury assessed as improvement in behavioral changes at 3 to 30 mg/kg, ip administered TID and measured after 24 hrs; type: functional, organism-based; settings: dose 3-30 mg/kg
# PC-12 [8] = assay: Cytoprotective activity against H2O2-induced cell death in rat PC-12 cells assessed as increase in cell viability incubated for 1 hr followed by H2O2 stimulation and measured after 5 hrs by LDH assay; type: functional, cell-based; settings: time 6.0 hrs
# [9] = AUC (0 to infinity) in Sprague-Dawley rat at 2 mg/kg, iv measured upto 24 hrs by LC-MS/MS analysis; type: ADME, organism-based; set-up: route intravenous, dose 2 mg/kg, time <=24; settings: in vivo
# [10] = Half life in Sprague-Dawley rat at 20 mg/kg, po measured upto 24 hrs by LC-MS/MS analysis; type: ADME, organism-based; settings: in vivo
# Rattus norvegicus [11] = assay: Neuroprotective activity in Sprague-Dawley rat model of middle cerebral artery occlusion-induced ischemic injury assessed as increase in MDA level at 3 to 30 mg/kg, ip administered TID and measured after 24 hrs by ELISA; type: functional, organism-based; settings: dose 3-30 mg/kg
# [12] = Toxicity in […] assessed as body weight at 400 mg/kg, ip measured on day 7 (reference value: 24.4 to 28.4 g); type: organism-based; settings: in vivo, 168 h, time 7 day
# [13] = Toxicity in […] assessed as organism death at 400 mg/kg, ip observed for 7 day; type: organism-based; settings: in vivo
# [14] = target: T1, Nuclear factor erythroid 2-related factor 2 (Rattus norvegicus); assay: Induction of Nrf2 nuclear translocation in rat PC-12 cells assessed as H2O2-induced GSH level at 10 uM incubated for 1 hr followed by H2O2 stimulation and measured after 5 hrs (reference value: 65.52 +/- 1.44 nM/mg); type: cell-based; settings: time 6.0 hrs
# Rattus norvegicus [15] = assay: Neuroprotective activity in Sprague-Dawley rat model of middle cerebral artery occlusion-induced ischemic injury assessed as infarction volume at 3 mg/kg, ip administered TID and measured after 6 hrs by TTC staining based assay (reference value: 28.67 +/- 2.90 %); type: functional
# PC-12 [16] = assay: Inhibition of H2O2-induced mitochondrial membrane potential loss in rat PC-12 cells assessed as increase in red fluoresence at 2.5 to 10 uM incubated for 1 hr followed by H2O2 stimulation and measured after 5 hrs by JC-1 staining based fluorescence microscopy; type: functional, cell-based; settings: dose 2.5-10 µM, time 6.0 hrs
# PC-12 [17] = assay: Cytoprotective activity against SNP-induced cell death in rat PC12 cells assessed as increase in cell viability at 10 uM incubated for 1 hr followed by SNP stimulation and measured after 24 hrs in presence of LY294002 by MTT assay; type: functional, cell-based; settings: time 25.0 hrs
# [18] = target: T1, Nuclear factor erythroid 2-related factor 2 (Rattus norvegicus); assay: Induction of Nrf2 nuclear translocation in rat PC-12 cells assessed as SNP-induced SOD level at 2.5 uM incubated for 1 hr followed by SNP stimulation and measured after 24 hrs (reference value: 23.74 +/- 2.02 U/mg); type: cell-based; settings: time 25.0 hrs
# [19] = target: T1, Nuclear factor erythroid 2-related factor 2 (Rattus norvegicus); assay: Induction of Nrf2 nuclear translocation in rat PC-12 cells assessed as SNP-induced GSH level at 10 uM incubated for 1 hr followed by SNP stimulation and measured after 24 hrs (reference value: 75.78 +/- 1.74 nM/mg); type: cell-based; settings: time 25.0 hrs
# [20] = target: T1, Nuclear factor erythroid 2-related factor 2 (Rattus norvegicus); assay: Induction of Nrf2 nuclear translocation in rat PC-12 cells assessed as SNP-induced GSH level at 2.5 uM incubated for 1 hr followed by SNP stimulation and measured after 24 hrs (reference value: 75.78 +/- 1.74 nM/mg); type: cell-based; settings: time 25.0 hrs
# [21] = target: T1, Nuclear factor erythroid 2-related factor 2 (Rattus norvegicus); assay: Induction of Nrf2 nuclear translocation in rat PC-12 cells assessed as H2O2-induced GSH level incubated for 1 hr followed by H2O2 stimulation and measured after 5 hrs; type: cell-based; settings: dose 2.5-10 µM, time 6.0 hrs
# PC-12 [22] = assay: Antioxidant activity in rat PC-12 cells assessed as reduction in SNP-induced ROS level incubated for 1 hr followed by SNP stimulation and measured after 24 hrs by DCFH-DA staining based fluorescence microscopy; type: functional, cell-based; settings: dose 2.5-10 µM, time 25.0 hrs
# [23] = target: T1, Nuclear factor erythroid 2-related factor 2 (Rattus norvegicus); assay: Induction of Nrf2 nuclear translocation in rat PC-12 cells assessed as decrease in cytoplasmic Nrf2 level at 1.25 to 5 uM incubated for 24 hrs by Western blot analysis; type: cell-based; settings: dose 1.25-5 µM
# [24] = target: T1, Nuclear factor erythroid 2-related factor 2 (Rattus norvegicus); assay: Induction of Nrf2 nuclear translocation in rat PC-12 cells assessed as H2O2-induced GSH-px level at 5 uM incubated for 1 hr followed by H2O2 stimulation and measured after 5 hrs (reference value: 45.92 +/- 3.64 mU/mg); type: cell-based; settings: time 6.0 hrs
smiles,measurement,setting,value
COc1ccc(-c2nc(-c3ccccc3O)n(-c3ccc(S(N)(=O)=O)cc3)n2)c(O)c1,Activity,PC-12 [1],30%
same,Activity,Rattus norvegicus [2],18.06%
same,Activity,[3],42.5 mU/mg
same,Activity,[4],41.2 U/mg
same,Activity,[5],Dose-dependent effect
same,Activity,[6],72.5 nM/mg
same,Activity,Rattus norvegicus [7],Active
same,Activity,PC-12 [8],Dose-dependent effect
same,AUC(0-inf),[9],2330 ng·h/mL
same,half-life,[10],4.26 h
same,Activity,Rattus norvegicus [11],Active
same,Activity,[12],25.7 g
same,LD50 at 168 h,[13],400 mg/kg
same,Activity,[14],80.6 nM/mg
same,Activity,Rattus norvegicus [15],20.52%
same,inhibition,PC-12 [16],Active
same,Activity,PC-12 [17],inactive
same,Activity,[18],34.6 U/mg
same,Activity,[19],89.2 nM/mg
same,Activity,[20],79.1 nM/mg
same,Activity,[21],Dose-dependent effect
same,inhibition,PC-12 [22],Dose-dependent effect
same,Activity,[23],Active
same,Activity,[24],65.2 mU/mg
